Results from patent US10123996B2, “Macrocyclic lactone compounds and methods for their use” (Elixir Medical Corporation, priority 2006, dated 2018).

Columns and labels:
Type in all cases: cell-based
[1] = tested on: human smooth muscle cells; assay: in vitro human smooth muscle cell culture testing, incorporated thymidine (proliferation); conditions: for % Proliferation After One Hr Exposure: 1 hr exposure; for % Proliferation After Three Hr Exposure: 3 hr exposure; for % Proliferation After Eight Hr Exposure: 8 hr exposure; for IC50: Homo sapiens
Protocol: The amounts of incorporated thymidine for samples of Compound AR of varying concentrations (0.005, 0.01, 0.05, 0.1, 0.5, and 1 μM) and of rapamycin of varying concentrations (0.0005, 0.001, 0.01, and 0.1 μM) were measured after exposure for different times of 1, 3 and 8 hours. The IC50 for Compound AR and rapamycin were approximately 0.05 and 0.01 μM, respectively, after smooth muscle cells were exposed to Compound AR and rapamycin for the shorter periods of 1 and 3 hours (as shown in Table 1 and FIG. 8). The IC50 of Compound AR and rapamycin was approximately 0.005 and 0.001 μM, respectively, after smooth muscle cells were exposure to Compound AR and rapamycin for 8 hours. The IC50 of Compound AR was approximately five times higher than that of rapamycin.
The amounts of incorporated thymidine for samples of 17, 18-29, 30-bis-epoxide macrocyclic lactone of varying concentrations (0.005, 0.01, 0.05, 0.1, 0.5, and 1 μM) and of Compound AR of varying concentrations (0.0005, 0.001, 0.01, and 0.1 μM) were measured after exposure for 8 hours. The IC50 of 17, 18-29, 30-bis-epoxide macrocyclic lactone and Compound AR was approximately 0.1 and 0.005 μM, respectively, after smooth muscle cells were exposed to 17, 18-29, 30-bis-epoxide macrocyclic lactone and Compound AR for 8 hours (FIG. 13). The IC50 of 17, 18-29, 30-bis-epoxide macrocyclic lactone was approximately 20 times higher than that of Compound AR.

[2] = tested on: IL-6 released by activated macrophages; assay: cytokine inhibition in LPS-activated macrophages, ELISA: IL-6; conditions: 10 nM
Protocol: (§1) In cell culture studies, macrophages were activated to secrete cytokines such as 11-6, MMP-9, MCP-1 and IL-10 by treating the cells to E Coli lippopolysaccharide (LPS). Inhibition of these cytokines upon treatment of the activated macrophages with Compound AR and rapamycin with 10 nM concentration was tested using ELISA assay. The inhibition of pro-inflammatory and cell proliferation and migration inducing cytokines upon exposure to the macrocyclic lactone is presented in FIG. 12A. The inhibition of anti-inflammatory cytokine IL-10 upon exposure to macrocyclic lactone Compound AR and Sirolimus are presented in FIG. 12B.

[3] = tested on: MMP-9 released by activated macrophages; assay: cytokine inhibition in LPS-activated macrophages, ELISA: MMP-9; conditions: 10 nM
Protocol: as §1

[4] = tested on: MCP-1 released by activated macrophages; assay: cytokine inhibition in LPS-activated macrophages, ELISA: MCP-1; conditions: 10 nM
Protocol: as §1

[5] = tested on: IL-10 released by activated macrophages; assay: cytokine inhibition in LPS-activated macrophages, ELISA: IL-10; conditions: 10 nM
Protocol: as §1

CO[C@@H]1C[C@H](C[C@@H](C)[C@@H]2CC(=O)[C@H](C)/C=C(\C)[C@@H](O)[C@@H](OC)C(=O)[C@H](C)C[C@H](C)/C=C/C=C/C=C(\C)C(O)C[C@@H]3CC[C@@H](C)C(O)(O3)C(=O)C(=O)N3CCCC[C@H]3C(=O)O2)CC[C@H]1O (stereo partly drawn) [Compound AR, 16-O-Demethyl Macrocyclic Lactone]
% Proliferation After One Hr Exposure ([1]; 0.005 micromolar): 84%
% Proliferation After Three Hr Exposure ([1]; 0.005 micromolar): 69%
% Proliferation After Eight Hr Exposure ([1]; 0.005 micromolar): 52%
% Proliferation After One Hr Exposure ([1]; 0.01 micromolar): 66%
% Proliferation After Three Hr Exposure ([1]; 0.01 micromolar): 56%
% Proliferation After Eight Hr Exposure ([1]; 0.01 micromolar): 38%
% Proliferation After One Hr Exposure ([1]; 0.05 micromolar): 54%
% Proliferation After Three Hr Exposure ([1]; 0.05 micromolar): 50%
% Proliferation After Eight Hr Exposure ([1]; 0.05 micromolar): 40%
% Proliferation After One Hr Exposure ([1]; 0.1 micromolar): 55%
% Proliferation After Three Hr Exposure ([1]; 0.1 micromolar): 52%
% Proliferation After Eight Hr Exposure ([1]; 0.1 micromolar): 36%
% Proliferation After One Hr Exposure ([1]; 0.5 micromolar): 57%
% Proliferation After Three Hr Exposure ([1]; 0.5 micromolar): 48%
% Proliferation After Eight Hr Exposure ([1]; 0.5 micromolar): 35%
IC50 ([1]; smooth muscle cells exposed for 8 hours): ~5 nM
IC50 ([1]; smooth muscle cells exposed for the shorter periods of 1 and 3 hours): ~50 nM
inhibition of release of IL-6 [2]: did not show and significant inhibition
production of MMP-9 [3]: significantly reduced the production
production of MCP-1 [4]: significantly reduced the production
production of anti-inflammatory cytokine IL-10 [5]: inhibit the production
